# Patent publication US20050287195A1, “Transdermal drug delivery systems” (priority 1998, published 2005)
# Experiment: In vitro skin permeation with human skin, Franz-type diffusion cells
# Type: in vitro ADME
# Settings: solvent/skin penetration enhancer DEET and/or Crotamiton, concentration below saturation, receptor at 32° C.
# Procedure: Dermatomed human skin sections were mounted onto the Franz cells and transdermal drug delivery systems mounted on tape backings (1.5 cm^2) were placed on the stratum corneal surface of the skin. Each Franz cell contained 7 ml of ethanol phosphate buffered saline as the receptor medium, maintained at 32° C. At predetermined time intervals 0.7 ml of the receptor solution was sampled and an equal amount replaced. The samples were analysed by High Pressure Liquid Chromatography.
row,skin mass transport,Compound
1,enhanced,C[C@]12CC[C@@H]3c4ccc(O)cc4CC[C@H]3[C@@H]1CC[C@@H]2O [Estradiol]
2,enhanced,C#C[C@]1(OC(C)=O)CC[C@H]2[C@@H]3CCC4=CC(=O)CC[C@@H]4[C@H]3CC[C@@]21C [Norethisterone Acetate]
